{"source": "ChEMBL document CHEMBL1201862", "about": "“PubChem BioAssay data set” (2004)", "key": {"[1]": {"molecular_target": "T1, Sentrin-specific protease 8 (Homo sapiens, UniProt Q96LD8)", "T1 sequence (Q96LD8 whole entry)": "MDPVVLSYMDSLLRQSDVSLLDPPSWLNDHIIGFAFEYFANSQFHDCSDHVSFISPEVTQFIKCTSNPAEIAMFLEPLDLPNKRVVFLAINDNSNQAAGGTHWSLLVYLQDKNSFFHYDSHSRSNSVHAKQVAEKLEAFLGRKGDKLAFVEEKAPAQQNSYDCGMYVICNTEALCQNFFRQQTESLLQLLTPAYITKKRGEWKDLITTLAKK", "experiment": "SENP8 protease inhibitors, SAR follow-up, biochemical, luminescence, set 2 (AID 588601)", "assay_type": "functional"}, "[2]": {"molecular_target": "T2, Sentrin-specific protease 6 (Homo sapiens, UniProt Q9GZR1)", "T2 sequence (Q9GZR1 whole entry)": "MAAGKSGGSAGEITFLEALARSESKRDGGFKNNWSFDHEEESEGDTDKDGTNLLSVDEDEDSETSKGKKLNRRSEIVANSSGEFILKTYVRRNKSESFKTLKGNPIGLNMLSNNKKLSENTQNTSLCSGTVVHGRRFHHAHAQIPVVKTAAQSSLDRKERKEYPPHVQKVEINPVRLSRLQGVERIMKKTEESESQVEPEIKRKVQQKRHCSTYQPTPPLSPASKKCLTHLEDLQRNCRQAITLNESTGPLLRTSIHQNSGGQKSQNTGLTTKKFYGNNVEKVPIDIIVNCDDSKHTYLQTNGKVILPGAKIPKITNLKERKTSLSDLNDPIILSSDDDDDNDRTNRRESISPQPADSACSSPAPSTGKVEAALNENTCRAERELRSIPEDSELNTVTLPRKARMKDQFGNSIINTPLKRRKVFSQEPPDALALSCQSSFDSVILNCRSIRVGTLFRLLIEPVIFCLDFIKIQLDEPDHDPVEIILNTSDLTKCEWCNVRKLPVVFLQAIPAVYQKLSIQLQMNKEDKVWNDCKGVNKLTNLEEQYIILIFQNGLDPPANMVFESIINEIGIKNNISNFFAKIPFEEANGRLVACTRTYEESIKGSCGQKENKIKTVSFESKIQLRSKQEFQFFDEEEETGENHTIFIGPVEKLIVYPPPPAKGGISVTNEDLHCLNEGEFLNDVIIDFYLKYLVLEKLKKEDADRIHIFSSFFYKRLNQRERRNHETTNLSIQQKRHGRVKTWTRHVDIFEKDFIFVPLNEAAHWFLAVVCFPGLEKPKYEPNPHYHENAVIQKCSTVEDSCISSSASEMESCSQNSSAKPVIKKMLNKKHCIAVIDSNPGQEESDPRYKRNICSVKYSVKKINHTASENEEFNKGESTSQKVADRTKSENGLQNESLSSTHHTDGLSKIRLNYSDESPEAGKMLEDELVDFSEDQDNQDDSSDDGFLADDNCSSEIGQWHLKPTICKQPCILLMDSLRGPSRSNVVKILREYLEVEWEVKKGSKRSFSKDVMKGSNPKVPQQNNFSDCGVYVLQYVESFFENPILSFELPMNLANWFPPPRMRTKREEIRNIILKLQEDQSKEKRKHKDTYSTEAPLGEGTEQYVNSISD", "experiment": "SENP6 protease inhibitors, SAR follow-up, biochemical, luminescence, set 2 (AID 588598)", "assay_type": "functional"}, "[3]": {"molecular_target": "T3, Sentrin-specific protease 7 (Homo sapiens, UniProt Q9BQF6)", "T3 sequence (Q9BQF6 whole entry)": "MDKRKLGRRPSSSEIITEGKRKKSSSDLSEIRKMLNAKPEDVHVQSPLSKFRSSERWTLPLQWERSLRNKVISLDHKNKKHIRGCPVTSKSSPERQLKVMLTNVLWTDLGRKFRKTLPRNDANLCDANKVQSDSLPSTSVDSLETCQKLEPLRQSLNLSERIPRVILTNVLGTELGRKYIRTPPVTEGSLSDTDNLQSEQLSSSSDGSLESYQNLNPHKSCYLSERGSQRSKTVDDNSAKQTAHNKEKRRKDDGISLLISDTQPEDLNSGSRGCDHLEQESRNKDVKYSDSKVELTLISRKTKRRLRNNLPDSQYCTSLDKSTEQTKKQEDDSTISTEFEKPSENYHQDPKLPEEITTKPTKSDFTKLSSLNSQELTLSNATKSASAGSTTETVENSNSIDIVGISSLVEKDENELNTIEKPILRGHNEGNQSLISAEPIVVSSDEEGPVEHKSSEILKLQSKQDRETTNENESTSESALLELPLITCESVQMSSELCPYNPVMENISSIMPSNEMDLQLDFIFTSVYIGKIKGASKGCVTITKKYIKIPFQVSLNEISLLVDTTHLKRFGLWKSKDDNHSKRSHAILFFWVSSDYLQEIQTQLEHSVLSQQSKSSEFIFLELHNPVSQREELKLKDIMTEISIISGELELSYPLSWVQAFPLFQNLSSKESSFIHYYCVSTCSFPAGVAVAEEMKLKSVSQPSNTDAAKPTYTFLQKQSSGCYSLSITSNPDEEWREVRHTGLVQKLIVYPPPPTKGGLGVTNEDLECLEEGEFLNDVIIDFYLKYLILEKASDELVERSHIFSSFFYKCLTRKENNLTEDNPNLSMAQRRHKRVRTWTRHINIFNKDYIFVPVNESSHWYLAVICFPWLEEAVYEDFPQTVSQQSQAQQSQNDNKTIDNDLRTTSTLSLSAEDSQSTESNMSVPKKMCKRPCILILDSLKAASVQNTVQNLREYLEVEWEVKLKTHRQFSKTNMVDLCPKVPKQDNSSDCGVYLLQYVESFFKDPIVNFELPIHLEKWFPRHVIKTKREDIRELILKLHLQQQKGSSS", "experiment": "SENP7 protease inhibitors, SAR follow-up, biochemical, luminescence, set 2 (AID 588600)", "assay_type": "functional"}, "Caspase-3": {"molecular_target": "T4, Caspase-3 (Homo sapiens, UniProt P42574)", "T4 sequence (P42574 whole entry)": "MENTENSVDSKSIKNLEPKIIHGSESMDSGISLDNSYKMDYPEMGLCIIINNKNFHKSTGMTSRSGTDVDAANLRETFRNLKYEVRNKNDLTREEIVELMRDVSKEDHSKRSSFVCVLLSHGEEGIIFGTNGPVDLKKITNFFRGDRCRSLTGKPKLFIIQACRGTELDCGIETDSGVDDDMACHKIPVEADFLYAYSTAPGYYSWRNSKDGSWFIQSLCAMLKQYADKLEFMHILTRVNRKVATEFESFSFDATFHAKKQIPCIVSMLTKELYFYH", "experiment": "caspase-3 inhibitors as off-family protease, SAR follow-up, selectivity assay for SENP protease inhibitor project, biochemical, luminescence, set 2 (AID 588599)", "assay_type": "functional"}, "[4]": {"molecular_target": "Cyclin-dependent kinase 5/CDK5 activator 1 (Homo sapiens, UniProt Q00535)", "sequence (Q00535 whole entry)": "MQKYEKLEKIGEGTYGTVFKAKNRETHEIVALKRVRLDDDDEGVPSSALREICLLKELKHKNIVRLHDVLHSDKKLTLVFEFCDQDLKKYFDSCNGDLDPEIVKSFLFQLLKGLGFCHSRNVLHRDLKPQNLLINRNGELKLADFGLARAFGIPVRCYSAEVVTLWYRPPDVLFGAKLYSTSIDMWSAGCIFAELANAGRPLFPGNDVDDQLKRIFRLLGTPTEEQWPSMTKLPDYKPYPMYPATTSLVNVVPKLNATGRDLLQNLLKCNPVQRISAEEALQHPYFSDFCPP", "sequence (Q15078 whole entry, further chain)": "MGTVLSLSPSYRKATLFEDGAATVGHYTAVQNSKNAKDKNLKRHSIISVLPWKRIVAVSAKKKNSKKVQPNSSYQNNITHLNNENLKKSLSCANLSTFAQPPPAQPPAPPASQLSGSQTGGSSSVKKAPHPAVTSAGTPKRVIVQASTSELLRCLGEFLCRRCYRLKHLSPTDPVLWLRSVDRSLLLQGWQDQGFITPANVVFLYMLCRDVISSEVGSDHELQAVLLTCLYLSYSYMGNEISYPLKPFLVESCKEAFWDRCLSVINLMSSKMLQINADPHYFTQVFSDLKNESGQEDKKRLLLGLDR", "experiment": "CDK5/p35 kinase inhibitors, dose response, biochemical, cherry-picked samples, set 2 (AID 504545)"}, "[5]": {"molecular_target": "T5, Luciferin 4-monooxygenase (Photinus pyralis, UniProt P08659)", "T5 sequence (P08659 whole entry)": "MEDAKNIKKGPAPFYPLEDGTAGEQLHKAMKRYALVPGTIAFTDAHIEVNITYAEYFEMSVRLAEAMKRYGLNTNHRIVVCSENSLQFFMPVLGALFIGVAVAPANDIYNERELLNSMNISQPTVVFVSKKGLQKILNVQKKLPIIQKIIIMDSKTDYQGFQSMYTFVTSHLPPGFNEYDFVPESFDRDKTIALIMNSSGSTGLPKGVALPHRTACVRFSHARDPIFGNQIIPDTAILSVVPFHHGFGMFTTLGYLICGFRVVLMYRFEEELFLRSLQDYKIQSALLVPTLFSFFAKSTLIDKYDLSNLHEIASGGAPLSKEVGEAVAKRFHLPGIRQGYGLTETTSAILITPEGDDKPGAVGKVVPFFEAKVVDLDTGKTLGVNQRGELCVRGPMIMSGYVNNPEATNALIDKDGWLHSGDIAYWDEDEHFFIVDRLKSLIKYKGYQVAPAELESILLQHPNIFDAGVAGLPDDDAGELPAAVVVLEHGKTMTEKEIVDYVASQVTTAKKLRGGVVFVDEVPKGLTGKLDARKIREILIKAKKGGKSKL", "experiment": "firefly luciferase enzyme inhibitors, dose response, biochemical, dry powder samples, plate reader (AID 588451)"}, "Paired box protein Pax-8": {"molecular_target": "Paired box protein Pax-8 (Homo sapiens, UniProt Q06710)", "sequence (Q06710 whole entry)": "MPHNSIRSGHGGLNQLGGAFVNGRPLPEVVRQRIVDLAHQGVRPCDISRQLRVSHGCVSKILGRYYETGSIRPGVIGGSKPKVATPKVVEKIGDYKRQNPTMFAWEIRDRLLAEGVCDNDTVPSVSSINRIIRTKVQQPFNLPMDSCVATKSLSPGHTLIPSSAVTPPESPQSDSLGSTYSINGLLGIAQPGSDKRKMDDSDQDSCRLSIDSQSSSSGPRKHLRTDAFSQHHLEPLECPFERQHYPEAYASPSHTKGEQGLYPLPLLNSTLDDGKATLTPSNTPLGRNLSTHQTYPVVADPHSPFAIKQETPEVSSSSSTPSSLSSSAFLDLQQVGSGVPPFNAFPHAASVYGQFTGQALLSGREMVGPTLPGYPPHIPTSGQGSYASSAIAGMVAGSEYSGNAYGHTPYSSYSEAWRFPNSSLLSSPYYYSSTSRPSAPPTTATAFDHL", "experiment": "inhibitors of PAX8-driven TPO luciferase reporter, dose response, RMG-I cells, cherry-pick (AID 687027);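 note: luciferase reporter driven by Pax8 target thyroperoxidase promoter measured by SteadyGlo luminescence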", "assay_type": "functional, cell-based"}, "[6]": {"experiment": "non-specific cell cytotoxicity, dose response, cytotoxicity control for PAX8 inhibitor project, plate reader, dry powder samples (AID 743021)", "assay_type": "functional, cell-based"}, "H4 [7]": {"tested_on": "H4", "experiment": "Amyloid Precursor 5' UTR neuroblastoma cell reporter line Measured in Cell-Based System Using Plate Reader - 2078-04_Inhibitor_Dose_DryPowder_Activity. [Related pubchem assays (depositor defined):AID488894]", "assay_type": "functional", "settings": "Homo sapiens"}, "H4 [8]": {"tested_on": "H4", "experiment": "Inhibitors of Prion Protein 5' UTR mRNA Measured in Cell-Based System Using Plate Reader - 2078-01_Inhibitor_Dose_DryPowder_Activity. [Related pubchem assays (depositor defined):AID488894]", "assay_type": "functional", "settings": "Homo sapiens"}, "[9]": {"molecular_target": "T5, Luciferin 4-monooxygenase", "experiment": "firefly luciferase enzyme inhibitors, dose response, biochemical, luminescence (AID 1891)"}, "[10]": {"experiment": "Luminescence Cell-Based Dose Confirmation HTS to Identify Inhibitors of Platelet Dense Granule Release. [Related pubchem assays: 1663 (Primary HTS), 1678 (Summary of Project)]", "assay_type": "functional"}, "ELAV-like protein 1": {"molecular_target": "ELAV-like protein 1 (Homo sapiens, UniProt Q15717)", "sequence (Q15717 whole entry)": "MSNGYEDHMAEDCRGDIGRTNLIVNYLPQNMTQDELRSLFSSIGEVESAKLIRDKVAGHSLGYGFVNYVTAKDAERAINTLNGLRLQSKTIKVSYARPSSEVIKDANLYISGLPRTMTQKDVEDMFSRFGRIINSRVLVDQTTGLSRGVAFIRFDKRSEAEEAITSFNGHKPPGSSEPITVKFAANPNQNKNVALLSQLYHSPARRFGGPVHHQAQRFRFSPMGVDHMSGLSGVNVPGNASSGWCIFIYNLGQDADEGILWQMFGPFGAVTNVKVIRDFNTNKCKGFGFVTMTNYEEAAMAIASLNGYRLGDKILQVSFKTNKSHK", "experiment": "Identify HuR specific inhibitors.", "assay_type": "functional"}, "Nonstructural protein 1": {"molecular_target": "Nonstructural protein 1 (Influenza A virus, UniProt Q194T2)", "sequence (Q194T2 whole entry)": "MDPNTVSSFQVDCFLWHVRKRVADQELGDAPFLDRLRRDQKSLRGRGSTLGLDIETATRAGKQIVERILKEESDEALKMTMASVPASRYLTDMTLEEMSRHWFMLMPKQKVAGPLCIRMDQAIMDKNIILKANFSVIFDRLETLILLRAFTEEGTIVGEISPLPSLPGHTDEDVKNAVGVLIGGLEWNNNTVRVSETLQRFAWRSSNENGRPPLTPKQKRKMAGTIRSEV", "assay_type": "functional, Influenza A virus (A/California/07/2009(H1N1))"}, "[11]": {"molecular_target": "Protein disulfide-isomerase (Homo sapiens, UniProt P07237)", "sequence (P07237 whole entry)": "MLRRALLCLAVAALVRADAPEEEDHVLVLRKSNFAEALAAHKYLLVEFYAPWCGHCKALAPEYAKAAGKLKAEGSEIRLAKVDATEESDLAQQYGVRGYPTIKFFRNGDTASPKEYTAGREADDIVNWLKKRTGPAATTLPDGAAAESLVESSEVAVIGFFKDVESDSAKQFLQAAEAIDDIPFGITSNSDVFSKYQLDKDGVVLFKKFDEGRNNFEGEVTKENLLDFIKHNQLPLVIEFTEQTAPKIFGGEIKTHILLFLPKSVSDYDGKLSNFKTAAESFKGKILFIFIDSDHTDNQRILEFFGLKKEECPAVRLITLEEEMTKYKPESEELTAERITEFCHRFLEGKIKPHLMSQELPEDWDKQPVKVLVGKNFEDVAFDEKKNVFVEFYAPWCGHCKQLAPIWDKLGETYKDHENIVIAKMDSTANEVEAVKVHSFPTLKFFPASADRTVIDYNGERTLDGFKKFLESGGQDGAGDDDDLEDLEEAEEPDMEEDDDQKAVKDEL", "experiment": "PDI inhibitors, insulin aggregation turbidity, dose response, biochemical, absorbance, cherry-picked samples (AID 602350)", "assay_type": "functional"}, "Protein S100-A4": {"molecular_target": "Protein S100-A4 (Homo sapiens, UniProt P26447)", "sequence (P26447 whole entry)": "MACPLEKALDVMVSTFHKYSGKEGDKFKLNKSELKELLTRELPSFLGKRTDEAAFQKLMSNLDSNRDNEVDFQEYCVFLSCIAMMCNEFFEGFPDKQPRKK", "experiment": "S100A4-myosin IIA binding inhibitor potency, dose response, biochemical, fluorescence polarization, cherry-picked hits (AID 687001)", "assay_type": "functional"}, "[12]": {"molecular_target": "Melanin-concentrating hormone receptor 1 (Homo sapiens, UniProt Q99705)", "sequence (Q99705 whole entry)": "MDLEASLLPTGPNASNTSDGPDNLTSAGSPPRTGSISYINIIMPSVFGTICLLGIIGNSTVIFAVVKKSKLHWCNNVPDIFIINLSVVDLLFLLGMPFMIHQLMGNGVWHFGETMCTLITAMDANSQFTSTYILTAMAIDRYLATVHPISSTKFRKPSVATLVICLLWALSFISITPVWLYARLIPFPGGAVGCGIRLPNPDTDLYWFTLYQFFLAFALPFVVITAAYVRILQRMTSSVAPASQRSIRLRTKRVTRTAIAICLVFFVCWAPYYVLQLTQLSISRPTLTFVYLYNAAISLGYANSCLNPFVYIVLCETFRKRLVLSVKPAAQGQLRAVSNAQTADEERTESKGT", "experiment": "Late-stage fluorescence-based counterscreen for antagonists of the G-protein coupled receptor 7 (GPR7): cell-based dose response assay to identify antagonists of the melanin-concentrating hormone receptor 1 (MCHR1) Set 5.", "assay_type": "functional"}}, "note": "Calls of active or inactive are those of the source.", "data": [{"smiles": "Cc1ccc2nc(NC(=O)c3cccc(-n4cnnn4)c3)sc2c1", "values": [{"measurement": "IC50", "setting": "[1]", "result": "> 99 µM (inactive)"}, {"measurement": "IC50", "setting": "[2]", "result": "> 99 µM (inactive)"}, {"measurement": "IC50", "setting": "[3]", "result": "> 99 µM (inactive)"}, {"measurement": "IC50", "setting": "Caspase-3", "result": "> 99 µM (inactive)"}]}, {"smiles": "Cc1ccc(C(=O)O/N=C(\\N)c2ccccn2)cc1", "values": [{"measurement": "AC50", "setting": "[4]", "result": "39 µM (active)"}, {"measurement": "AC50", "setting": "[5]", "result": "0.06 µM (active)"}, {"measurement": "AC50", "setting": "Paired box protein Pax-8", "result": "15.5 µM (active)"}, {"measurement": "AC50", "setting": "[6]", "result": "29.9 µM (active)"}, {"measurement": "AC50", "setting": "H4 [7]", "result": "0.244 µM (active)"}, {"measurement": "AC50", "setting": "H4 [8]", "result": "0.731 µM (active)"}, {"measurement": "EC50", "setting": "[9]", "result": "0.994 µM (active)"}, {"measurement": "EC50", "setting": "[10]", "result": "1.6 µM (active)"}]}, {"smiles": "COc1cccc2c1C(=O)c1c(O)c3c(c(O)c1C2=O)CC(O)(C(C)=NO)CC3OC1CC(N)C(O)C(C)O1", "note": "(configuration not stated)", "values": [{"measurement": "IC50", "setting": "ELAV-like protein 1", "result": "21.7 µM (active)"}, {"measurement": "IC50", "setting": "Nonstructural protein 1", "result": "32 µM (active)"}, {"measurement": "AC50", "setting": "[11]", "result": "16.9 µM (active)"}, {"measurement": "AC50", "setting": "Protein S100-A4", "result": "0.406 µM (active)"}]}, {"smiles": "COc1ccc(Oc2c(Cl)cnn(Cc3ccccc3OC)c2=O)cc1", "values": [{"measurement": "IC50", "setting": "[12]", "result": "6.63 µM (active)"}]}]}
